Values joined by “and” are separate entries in the source; they are usually repeats but may differ in a detail not shown here. Equal values may be shown once. Where a SMILES comes first, the peptide text is derived from it. [ ]: non-standard residue; d: D form. Hyp = O=C(O)[C@@H]1C[C@@H](O)CN1
Experiments:
[1] = PBMC cell counts (total, live, viability; trypan blue, Countess) with and without LPS and test articles (Example 9); assay type: cell-based, human; details: human, PBMCs, 24 hr
Description: (§1) Treatment Human PBMCs were pretreated with YY-101, YDE-011 and YDE-043 or reference compound; Xiidra® at various concentration (ranging from 1 nM to 100 uM) for 2 h before stimulation. An equal volume of 0.5% DMSO was used as a vehicle control. Then, the cells were treated with LPS at 5 ug/ml. The supernatants from treated cells were harvested at 24 h and placed in a 96 well for Luminex cytokine & chemokine profiling using a Luminex 200 multiplex assay (Luminex; R&D system, USA).
(§2) The main study arm with triplicate wells per group in a 24-well plate: • 1. Blank • 2. PBMC: 0.5% DMSO • 3. PBMC+LPS (5 ug/ml) • 4. PBMC+YY-101 100 uM • 5. PBMC+YY-101 10 uM • 6. PBMC+YY-101 1 uM • 7. PBMC+YY-101 0.1 uM • 8. PBMC+YY-101 0.01 uM • 9. PBMC+LPS (5 ug/ml)+Xiidra®100 uM • 10. PBMC+LPS (5 ug/ml)+Xiidra® 10 uM • 11. PBMC+LPS (5 ug/ml)+Xiidra® 1 uM • 12. PBMC+LPS (5 ug/ml)+Xiidra®0.1 uM • 13. PBMC+LPS (5 ug/ml)+Xiidra®0.01 uM • 14. PBMC+LPS (5 ug/ml)+Xiidra®0.001 uM • 15. PBMC+LPS (5 ug/ml)+YY-101 100 uM • 16. PBMC+LPS (5 ug/ml)+YY-101 10 uM • 17. PBMC+LPS (5 ug/ml)+YY-101 1 uM • 18. PBMC+LPS (5 ug/ml)+YY-101 0.1 uM • 19. PBMC+LPS (5 ug/ml)+YY-101 0.01 uM • 20. PBMC+LPS (5 ug/ml)+YY-101 0.001 uM • 21. PBMC+LPS (5 ug/ml)+YDE-011 100 uM • 22. PBMC+LPS (5 ug/ml)+YDE-011 10 uM • 23. PBMC+LPS (5 ug/ml)+YDE-011 1 uM • 24. PBMC+LPS (5 ug/ml)+YDE-011 0.1 uM • 25. PBMC+LPS (5 ug/ml)+YDE-011 0.01 uM • 26. PBMC+LPS (5 ug/ml)+YDE-011 0.001 uM • 27. PBMC+LPS (5 ug/ml)+YDE-043 100 uM • 28. PBMC+LPS (5 ug/ml)+YDE-043 10 uM • 29. PBMC+LPS (5 ug/ml)+YDE-043 1 uM • 30. PBMC+LPS (5 ug/ml)+YDE-043 0.1 uM • 31. PBMC+LPS (5 ug/ml)+YDE-043 0.01 uM • 32. PBMC+LPS (5 ug/ml)+YDE-043 0.001 uM
The number of PBMCs was measured after 24 hr of treatment. The culture both and trypan blue were diluted 1:1 and 10 ul was added to Countess cell counting chamber (Thermo fisher, USA). The number of PBMCs was measured using a Countess automated cell counter (Thermo fisher, USA).

[2] = tested on: IFN-gamma; test: Example 9 Luminex, LPS hPBMCs: IFN-gamma; assay type: cell-based, human
Description: as §1, §2
Multiplex assay was used to measure 30 cytokines and chemokines. The 1:2, 1:10 and 1:200 diluted cell supernatant and serial dilution of the standard were dispensed into a 96 well plate at 50 ul/well. Then, the pre-mixed cocktail of antibody-coated magnetic beads was dispensed at 50 ul/well and incubated at room temperature for 2 h in a horizontal orbital microplate shaker at 800±500 rpm. The beads were washed using a magnetic device to prevent loss. The biotin-antibody was dispensed in 50 ul of each well and incubated at room temperature for 1 h in a shaker at 800±500 rpm. After washing, streptavidin-PE was added at 50 ul/well and incubated at room temperature for 30 min in a shaker under the same conditions. Finally, after washing, wash buffer (100 ul/well) was added to the plate and incubated in a shaker for 2 min. The Luminex™ 200 setting were set according to the manufacturer's protocol. The data was calculated with a standard five-parameter logistic nonlinear regression analysis of the data (xPonent software 4.2, USA). The levels of cytokine/chemokine are normalized to the live cell counts (1×10^5 cells/mL) and presented as concentrations per mL (pg/mL or ng/mL).

[3] = PBMC + LPS(5 ug/ml) + test article 0.001 uM, Mean
[4] = PBMC + LPS(5 ug/ml) + test article 0.001 uM, single replicates
[5] = PBMC + LPS(5 ug/ml) + test article 0.01 uM, Mean
[6] = PBMC + LPS(5 ug/ml) + test article 0.01 uM, single replicates
[7] = PBMC + LPS(5 ug/ml) + test article 0.1 uM, Mean
[8] = PBMC + LPS(5 ug/ml) + test article 0.1 uM, single replicates
[9] = PBMC + LPS(5 ug/ml) + test article 1 uM, Mean
[10] = PBMC + LPS(5 ug/ml) + test article 1 uM, single replicates
[11] = PBMC + LPS(5 ug/ml) + test article 10 uM, Mean
[12] = PBMC + LPS(5 ug/ml) + test article 10 uM, single replicates
[13] = PBMC + LPS(5 ug/ml) + test article 100 uM, Mean
[14] = PBMC + LPS(5 ug/ml) + test article 100 uM, single replicates

Work on `CC(C)C[C@H](NC(=O)[C@H](CCC(N)=O)NC(=O)CNC(=O)[C@@H]1C[C@@H](O)CN1)C(=O)NCC(=O)O` [YDE-043] (H-[Hyp]GQLG-OH; N-terminus and C-terminus assumed) yielded a viability at 24 h, 0.001 µM ([1]; PBMC + LPS(5 ug/ml) + compound 0.001 uM) of 79.3 ± 1.5%, a viability at 24 h, 0.01 µM ([1]; PBMC + LPS(5 ug/ml) + compound 0.01 uM) of 77.3 ± 6.9% and a viability at 24 h, 0.1 µM ([1]; PBMC + LPS(5 ug/ml) + compound 0.1 uM) of 82 ± 4%. It also gave a viability at 24 h, 1 µM ([1]; PBMC + LPS(5 ug/ml) + compound 1 uM) of 78 ± 5%, a viability at 24 h, 10 µM ([1]; PBMC + LPS(5 ug/ml) + compound 10 uM) of 83.3 ± 3.3% and a viability at 24 h, 100 µM ([1]; PBMC + LPS(5 ug/ml) + compound 100 uM) of 84.5 ± 4.5%. The “Concentration (IFN-gamma)” value [2, 3] was 861.2 pg/mL, the “conc/live cell (IFN-gamma)” value [2, 3] was 174.1 pg/10^5 and the “Concentration (IFN-gamma)” value [2, 4] was 863.3 pg/mL and 945.2 pg/mL and 774.9 pg/mL. The “conc/live cell (IFN-gamma)” value [2, 4] was 196.2 pg/10^5 and 157.5 pg/10^5 and 168.5 pg/10^5, the “Concentration (IFN-gamma)” value [2, 5] was 841.6 pg/mL and the “conc/live cell (IFN-gamma)” value [2, 5] was 161.9 pg/10^5. The “Concentration (IFN-gamma)” value [2, 6] was 857.6 pg/mL and 792.3 pg/mL and 874.8 pg/mL, the “conc/live cell (IFN-gamma)” value [2, 6] was 190.6 pg/10^5 and 120.0 pg/10^5 and 175.0 pg/10^5 and the “Concentration (IFN-gamma)” value [2, 7] was 797.8 pg/mL. The “conc/live cell (IFN-gamma)” value [2, 7] was 148.8 pg/10^5, the “Concentration (IFN-gamma)” value [2, 8] was 892.0 pg/mL and 628.5 pg/mL and 872.9 pg/mL and the “conc/live cell (IFN-gamma)” value [2, 8] was 178.4 pg/10^5 and 112.2 pg/10^5 and 155.9 pg/10^5. For the same compound, the “Concentration (IFN-gamma)” value [2, 9] was 852.5 pg/mL, the “conc/live cell (IFN-gamma)” value [2, 9] was 162.3 pg/10^5 and the “Concentration (IFN-gamma)” value [2, 10] was 734.2 pg/mL and 834.6 pg/mL and 988.7 pg/mL. The “conc/live cell (IFN-gamma)” value [2, 10] was 126.6 pg/10^5 and 173.9 pg/10^5 and 186.5 pg/10^5, the “Concentration (IFN-gamma)” value [2, 11] was 840.3 pg/mL and the “conc/live cell (IFN-gamma)” value [2, 11] was 155.7 pg/10^5. The “Concentration (IFN-gamma)” value [2, 12] was 828.9 pg/mL and 826.9 pg/mL and 865.3 pg/mL, the “conc/live cell (IFN-gamma)” value [2, 12] was 159.4 pg/10^5 and 153.1 pg/10^5 and 154.5 pg/10^5 and the “Concentration (IFN-gamma)” value [2, 13] was 462.3 pg/mL. The “conc/live cell (IFN-gamma)” value [2, 13] was 73.4 pg/10^5, the “Concentration (IFN-gamma)” value [2, 14] was 480.6 pg/mL and 444.0 pg/mL and the “conc/live cell (IFN-gamma)” value [2, 14] was 77.5 pg/10^5 and 69.4 pg/10^5.

From patent US20230146455A1, “TREATMENT OF INFLAMMATORY DISEASES WITH PEPTIDES AND PHARMACEUTICAL COMPOSITIONS” (Yuyu Pharma, Inc., priority 2020, published 2023)
